Assay results published in patent US7759510B2, “Platinum complexes and methods of use” (University of South Florida, priority 2003, dated 2010).
Entries after “also recorded” stand apart in the source; their conditions may differ. Read-outs that look alike come from different tables or passages of the source.

Experiments:
Stat3 [1] = target: T1, Stat3 (Mus musculus, UniProt P42227); test: EMSA of nuclear extracts, Stat3 DNA-binding activity to hSIE probe; type: biochemical; details: in vitro
T1 construct: Nuclear extracts were prepared from NIH3T3/hEGFR cell that overexpress human epidermal growth factor (EGF) receptor and stimulated with EGF; endogenous in cells; host or cells: NIH3T3/hEGFR fibroblasts, EGF-stimulated (6 ng/ml, 15 min), nuclear extract
Experimental: Nuclear Extract Preparation and Analysis by EMSA of HK-Designated Platinum Complexes.
Nuclear extracts were prepared from NIH3T3/hEGFR cell that overexpress human epidermal growth factor (EGF) receptor and stimulated with EGF (6 ng/ml) for 15 min. Nuclear extracts were pre-incubated with compounds for 30 min at room temperature prior to incubation with radiolabeled probe. The ^32P-labeled oligonucleotide probe used is hSIE (high affinity sis-inducible element, m67 variant, 5′-[…]-3′) (SEQ ID NO:1) that binds both Stat1 and Stat3.
Other platinum (IV) complexes were evaluated for inhibitory activity against STAT DNA-binding in vitro.

A549 cells = test: MTT assay, percent survival of A549 cells; type: cell-based; details: A549; for IC50: Table 2, read-out: Calculated IC 50 (uM concentration)
Experimental: 1. Prepare a suspension of A549 cells at 2×10^5 cells per mL in supplemented DMEM/F12 growth medium.
2. Plate 2×10^4 cells per well in a 96 well cell culture plate by adding 100 μL of stock suspension to each well.
3. For each platinum compound (already in solution), prepare a readily usable stock solution in DMEM/F12 medium.
4. For each compound generate triplicate trials of 0, 10, 20, 30, 40, 50, 60, and 70 μM concentration. This is achieved in situ by adding appropriate volumes of stock solution to each well along with the volume of untreated medium necessary to generate the desired concentration in a final volume of 200 μL.
5. Gently agitate plates to mix contents. Incubate at 37° C., 7% CO2 for 45 hours.
6. Add 20 μL of 5 mg/mL MTT solution (in PBS) to each well.
7. Gently agitate plates to mix contents and incubate an additional 3 hours to allow product development.
8. Remove plates from incubator and agitate to cause settling of formazan product.
9. Aspirate out liquid contents of each well using needle and syringe and discard.
10. Add 200 μL DMSO to each well to dissolve formazan product.
11. Agitate plates until all of the formazan product is in solution and no purple crystals remain on the bottom surface of the wells.
12. Read the absorbance of each well at […] using Varian software for Cary 50 UV-vis Spectrophotometer with fiber optic probe accessory.
(§1) MTT assays are used for the quantitative determination of cellular proliferation and activation and for the quantitation of in vitro tumor cell sensitivity to anti-cancer compounds. The assay is based on the cleavage of the yellow tetrazolium salt MTT into purple colored formazan by metabolically active cells. Solubilized formazan product can be photometrically quantitated using an ELISA plate reader. A decrease in the number of living cells results in a decrease in total metabolic activity which leads to a decrease in color formation. Platinum complexes of the present invention were tested in MTT assays using A549 cells to determine anti-cancer cell activity. […] FIGS. 1, 2, and 4 show percent survival versus platinum complex concentration in graphical form.
as §1, with “FIGS. 8, 9,” for “FIGS. 1, 2,”, “and 11” for “and 4”

Stat3 [2] = test: Stat3 signaling, growth inhibition and apoptosis in cells that contain constitutive Stat3 activity; type: cell-based; details: Src-transformed mouse fibroblasts, human tumor cells of the breast, prostate, mouse melanoma cells
Description: Methods of the invention comprise inhibiting function of a STAT by contacting a cell expressing a STAT with a platinum complex of the invention wherein the complex is taken in or otherwise provided inside the cell. Platinum complexes of the invention can physically interact with the DNA-binding domain of Stat3 and thereby disrupts its ability to bind to DNA.

[3] = Reduction of CPA-7 platinum complex by glutathione (UV kinetics at 226 nm); type: physicochemical; details: 20 μm CPA-7 in PBS/20% DMSO with 10 mM glutathione
Experimental: FIGS. 5A-C show inertness of CPA-7 platinum complex to reduction by glutathione. 20 μm CPA-7 in PBS/20% DMSO with […]. […] Reduction is attributed to room light.
FIGS. 5A-C show the inertness of CPA-7 to glutathione reduction. In the figures, 20 μm CPA-7 was added in PBS/20% DMSO with 10 mM glutathione. The readings were initiated in late evening where data points were collected every 10 minutes at the lambda max for CPA-7, 226 nm. […] Data was collected on a Varian Cary 50 fitted with a fibreoptic probe in the kinetics mode. The Cary 50 uses a pulsed Xenon lamp with discontinuous irradiation between readings. A 25-mL volumetric flask was used for the solution with a magnetic stirring bar at slow speed.

[4] = extrapolated from incomplete data (10-40 uM; CPA-31 10-30 μM), outside the measured range

T1 sequence (P42227 whole entry): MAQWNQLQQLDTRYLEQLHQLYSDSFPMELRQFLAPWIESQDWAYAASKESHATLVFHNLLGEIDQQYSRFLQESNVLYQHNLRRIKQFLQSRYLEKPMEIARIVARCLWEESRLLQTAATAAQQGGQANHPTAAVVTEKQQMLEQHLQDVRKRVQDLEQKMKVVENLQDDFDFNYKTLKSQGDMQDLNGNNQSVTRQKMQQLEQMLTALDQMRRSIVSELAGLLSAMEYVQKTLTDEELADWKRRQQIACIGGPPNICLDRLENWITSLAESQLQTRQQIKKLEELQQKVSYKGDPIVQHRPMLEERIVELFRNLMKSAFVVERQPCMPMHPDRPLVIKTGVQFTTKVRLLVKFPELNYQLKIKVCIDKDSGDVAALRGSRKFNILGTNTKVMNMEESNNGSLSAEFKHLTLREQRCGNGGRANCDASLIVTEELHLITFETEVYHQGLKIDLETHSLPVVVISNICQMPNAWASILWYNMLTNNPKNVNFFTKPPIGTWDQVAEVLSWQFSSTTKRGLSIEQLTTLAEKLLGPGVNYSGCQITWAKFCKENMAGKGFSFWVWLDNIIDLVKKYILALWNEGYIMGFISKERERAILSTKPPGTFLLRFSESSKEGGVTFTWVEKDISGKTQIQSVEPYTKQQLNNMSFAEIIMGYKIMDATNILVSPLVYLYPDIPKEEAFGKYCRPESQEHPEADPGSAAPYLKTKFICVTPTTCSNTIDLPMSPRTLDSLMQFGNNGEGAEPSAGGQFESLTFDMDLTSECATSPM

| SMILES | Disruption of Stat3 activity / ability to bind its consensus binding sequence (Stat3 [1]) | Average Absorbance (A549 cells; Table 1, 10 μM) | Percent Survival (A549 cells; Table 1, 10 μM) [%] | Average Absorbance (A549 cells; Table 1, 20 μM) | Percent Survival (A549 cells; Table 1, 20 μM) [%] | Average Absorbance (A549 cells; Table 1, 30 μM) | Percent Survival (A549 cells; Table 1, 30 μM) [%] | Average Absorbance (A549 cells; Table 1, 40 μM) | Percent Survival (A549 cells; Table 1, 40 μM) [%] | Average Absorbance (A549 cells; Table 3, 10 μM) | Percent Survival (A549 cells; Table 3, 10 μM) [%] | Average Absorbance (A549 cells; Table 3, 20 μM) | Percent Survival (A549 cells; Table 3, 20 μM) [%] | Average Absorbance (A549 cells; Table 3, 30 μM) | Percent Survival (A549 cells; Table 3, 30 μM) [%] | Average Absorbance (A549 cells; Table 3, 40 μM) | Percent Survival (A549 cells; Table 3, 40 μM) [%] | Average Absorbance (A549 cells; Table 3, 50 μM) | Percent Survival (A549 cells; Table 3, 50 μM) [%] | Average Absorbance (A549 cells; Table 3, 60 μM) | also measured |
| --- | --- | --- | --- | --- | --- | --- | --- | --- | --- | --- | --- | --- | --- | --- | --- | --- | --- | --- | --- | --- | --- |
| [NH2][Pt]([NH2])([Cl])([Cl])([N]1C(=O)CC(C(=O)O)NC1=O)[N+](=O)[O-] (stereo not shown) [CPA-55] | strongly disrupt Stat3 activity | 2.4481 | 103.6847 | 2.3731 | 100.5082 | 2.3268 | 98.5473 | 1.3780 | 58.3626 | 2.4587 | 100.6468 | 2.4875 | 101.8257 | 1.6902 | 69.1883 | 0.6503 | 26.6200 | 0.4894 | 20.0336 | 0.7082 | IC50 (A549 cells; [4]): 54.2 µM; Percent Survival (A549 cells; Table 3, 60 μM): 28.9901%; Average Absorbance (A549 cells; Table 3, 70 μM): 0.5733; Percent Survival (A549 cells; Table 3, 70 μM): 23.4680% |
| N[N](c1cc([N+](=O)[O-])cc([N+](=O)[O-])c1)[Pt]([NH2])([NH2])([Cl])([Cl])[N+](=O)[O-] [CPA-43] | strongly disrupt Stat3 activity | 2.4150 | 102.2828 | 1.8554 | 78.5820 | 2.1451 | 90.8517 | 1.3030 | 55.1861 | 2.5840 | 105.7759 | 2.2922 | 93.8311 | 1.4833 | 60.7188 | 0.6479 | 26.5218 | 0.4641 | 18.9979 | 0.6504 | IC50 (A549 cells; [4]): 49.6 µM; Percent Survival (A549 cells; Table 3, 60 μM): 26.6241%; Average Absorbance (A549 cells; Table 3, 70 μM): 0.5059; Percent Survival (A549 cells; Table 3, 70 μM): 20.7090% |
| [NH2][Pt]([NH2])([Cl])([Cl])([N+](=O)[O-])[o+]1c2cc(=O)ccc-2c(-c2ccccc2C(=O)O)c2ccc(O)cc21 [CPA-39] | strongly disrupt Stat3 activity | 2.5313 | 107.2085 | 2.4307 | 102.9478 | 2.3599 | 99.9492 | 1.9611 | 83.0587 | 2.6556 | 108.7069 | 2.4616 | 100.7655 | 2.0894 | 85.5295 | 1.3568 | 55.5405 | 0.6566 | 26.8779 | 0.6086 | Average Absorbance (A549 cells; Table 1, 50 μM): 1.0318; Percent Survival (A549 cells; Table 1, 50 μM): 43.7000%; Average Absorbance (A549 cells; Table 1, 60 μM): 0.7776; Percent Survival (A549 cells; Table 1, 60 μM): 32.9338%; Average Absorbance (A549 cells; Table 1, 70 μM): 0.9798; Percent Survival (A549 cells; Table 1, 70 μM): 41.4976%; IC50 (A549 cells; linear trend from percent survival vs. concentration data of Table 1): 56.4 µM; Percent Survival (A549 cells; Table 3, 60 μM): 24.9130%; Average Absorbance (A549 cells; Table 3, 70 μM): 0.6166; Percent Survival (A549 cells; Table 3, 70 μM): 25.2405% |
| O=[N+]([O-])[Pt]1([Cl])([Cl])([Cl])[NH]CC[NH]1 [CPA-1] | – | – | – | – | – | – | – | – | – | – | – | – | – | – | – | – | – | – | – | – | Cell growth inhibition and apoptosis (Stat3 [2]): induce cell growth inhibition and apoptosis; Stat3 signaling function (Stat3 [2]): abrogate Stat3 signaling function |
| [NH2][Pt]([NH2])([Cl])([Cl])([Cl])[N+](=O)[O-] [CPA-7] | strongly disrupt Stat3 activity | – | – | – | – | – | – | – | – | – | – | – | – | – | – | – | – | – | – | – | Cell growth inhibition and apoptosis (Stat3 [2]): induce cell growth inhibition and apoptosis; Stat3 signaling function (Stat3 [2]): abrogate Stat3 signaling function; Reduction by glutathione (GSH) [3]: stability against GSH reduction; also recorded: not appreciably reduced by GSH; Sensitivity to light (reduction by room light) [3]: sensitivity to light |
| [NH2][Pt]([NH2])([Cl])([Cl])[N+](=O)[O-].c1ccc(-c2oc(-c3ccccc3)c3ccccc23)cc1 [CPA-41] | strongly disrupt Stat3 activity | 2.3706 | 100.4024 | 2.3827 | 100.9148 | 2.1124 | 89.4668 | 0.8648 | 36.6270 | 2.4500 | 100.2906 | 2.3805 | 97.4457 | 1.4686 | 60.1171 | 0.4210 | 17.2336 | 0.3647 | 14.9290 | 0.5549 | IC50 (A549 cells; [4]): 40.7 µM; Percent Survival (A549 cells; Table 3, 60 μM): 22.7148%; Average Absorbance (A549 cells; Table 3, 70 μM): 0.5445; Percent Survival (A549 cells; Table 3, 70 μM): 22.2891% |
